Assay results published in paper PMC10901950, “Neuroprotective and Anti-inflammatory Effects of Rubiscolin-6 Analogs with Proline Surrogates in Position 2” (Neurochemical Research, 2023).
Square brackets hold non-standard residues; d marks the D form. Ends that are not written are not given here. Peptide text beside a SMILES is read from it. Dmt = Cc1cc(O)cc(C)c1C[C@H](N)C(=O)O; Inp = O=C(O)C1CCNCC1

Experiments:
SH-SY5Y cells [1] = test: Intracellular ROS production in 6-OHDA-treated SH-SY5Y cells; type: cell-based, human; conditions: 6-OHDA 100 µM; for decrease of ROS production stimulated by 6-OHDA: peptide at both 1 and 10 µM
Protocol: The detection of ROS generated in injured cells was evaluated using the 5(6)-carboxy-2ʹ,7ʹ-dichlorofluorescein diacetate (carboxy-H2DCFDA) reagent (Invitrogen, Bleiswijk, Netherlands). After incubation, cells were washed with ice-cold Phosphate-Buffer Saline (PBS). Then, the carboxyl-H2DCFDA (100 µL, 20 µM) reagent was added and incubated for 1 h at 37 °C. Finally, the fluorescence intensity was measured at wavelengths of […], and ROS levels were presented in percentage of control (non-treated cells).

AKT = test: Western blot, AKT phosphorylation in 6-OHDA-treated SH-SY5Y cells; type: cell-based, human; conditions: for AKT phosphorylation / stimulation time for maximum effect on AKT phosphorylation: peptide 10 µM; for AKT phosphorylation: 2.5-10 min, 6-OHDA 100 µM treated cells; for stimulation time for maximum effect on AKT phosphorylation: 6-OHDA-treated cells, p-AKT (Ser473)/total AKT; for effect of peptide on AKT phosphorylation after LY 294002 pre-treatment: LY 294002 20 µM 30 min before peptide 10 µM and 6-OHDA 100 µM, 7.5 min (5), 2.5 min (7)
Protocol: The neuroblastoma SH-SY5Y cells were grown in a 6-well plate and when 80–90% confluent treated with 6-OHDA (100 µM) for 24 h. Then cells were stimulated with peptides for 2.5, 5, 7.5 and 10 min (for AKT) or 24 h (for mTOR). When needed, a 30 min pre-incubation step with LY 294002 was included before analogs and 6-OHDA addition. Stimulation was terminated by aspiration of the medium. Cells were washed 2 times with ice-cold PBS, and then 200 µL of ice-cold lysis buffer [150 mM NaCl, 20 mM Tris–HCl, glycerol, 5 mM EDTA, 0.5 mM phenylmethylsulphonylfluoride (PMSF), 10% Triton X-100, 100 mM protease inhibitors, pH 7.4] was added. Cells were incubated on ice for 15 min. Lysates were then centrifuged at 12,000×g for 10 min at 4 °C, and the supernatants were used as the total cell lysates. The protein content in the supernatants was quantified using the Bio-Rad protein assay kit. Equal amounts of protein were separated on 10% sodium dodecyl sulfate (SDS)-polyacrylamide gels and transferred to polyvinylidene difluoride membranes from (PVDF, Millipore, Cork, Ireland). Non-specific binding was blocked with tris-buffered saline Tween-20 (TBS-T: 150 mM NaCl, 20 mM Tris–HCl, 0.1% Tween 20, pH 7.5) containing 5% nonfat milk for 2 h at room temperature. Then, the membrane was incubated overnight at 4 °C with one of the following specific primary antibodies: Vinculin (1:1000 dilution; Cell Signalling Technology, Danvers, MA, USA), p-AKT (1:1000 dilution; Cell Signalling Technology, Danvers, MA, USA), AKT (1:1000 dilution; Cell Signalling Technology, Danvers, MA, USA), p-mTOR (1:1000 dilution; Cell Signalling Technology, Danvers, MA, USA), mTOR (1:1000 dilution; Cell Signalling Technology, Danvers, MA, USA). After incubation, membranes were washed six times per 5 min with TBS-T. In the next step, membranes were incubated with HRP-conjugated secondary antibodies (1:1000 dilution; Cell Signalling Technology, Danvers, MA, USA) for 1 h. Following six washes with TBS-T, the protein bands were detected with the Clarity Western ECL reagent from Bio-Rad. The band intensity was quantified by NIH ImageJ densitometric analysis. For quantification, specific phosphorylation was calculated as the ratio of phosphorylated AKT or mTOR signals to the total Akt or mTOR signal detected. Values of unstimulated samples were set to 1.0. The original immunoblots are provided in Supplementary data.

mTOR = test: Western blot, mTOR phosphorylation in 6-OHDA-treated SH-SY5Y cells; type: cell-based, human; conditions: peptide 1 and 10 µM, 24 h
Protocol: The neuroblastoma SH-SY5Y cells were grown in a 6-well plate and when 80–90% confluent treated with 6-OHDA (100 µM) for 24 h. Then cells were stimulated with peptides for 2.5, 5, 7.5 and 10 min (for AKT) or 24 h (for mTOR). When needed, a 30 min pre-incubation step with LY 294002 was included before analogs and 6-OHDA addition. Stimulation was terminated by aspiration of the medium. Cells were washed 2 times with ice-cold PBS, and then 200 µL of ice-cold lysis buffer [150 mM NaCl, 20 mM Tris–HCl, glycerol, 5 mM EDTA, 0.5 mM phenylmethylsulphonylfluoride (PMSF), 10% Triton X-100, 100 mM protease inhibitors, pH 7.4] was added. Cells were incubated on ice for 15 min. Lysates were then centrifuged at 12,000×g for 10 min at 4 °C, and the supernatants were used as the total cell lysates. The protein content in the supernatants was quantified using the Bio-Rad protein assay kit. […] Following six washes with TBS-T, the protein bands were detected with the Clarity Western ECL reagent from Bio-Rad. The band intensity was quantified by NIH ImageJ densitometric analysis. For quantification, specific phosphorylation was calculated as the ratio of phosphorylated AKT or mTOR signals to the total Akt or mTOR signal detected. […]

[2] = Ferric reducing antioxidant power (FRAP); conditions: peptides 10 µM, 37 °C, 30 min, absorbance 593 nm; mean ± SEM
Protocol: FRAP assay adapted to microscale with minor modifications was used to measure the ferric reducing ability of peptides. Acetate buffer (0.3 M, pH 3.6), 2,4,6-Tris(2-pyridyl)-s-triazine (TPTZ, 10 mM prepared in 40 mM HCl), and ferric solutions (20 mM) were freshly mixed at a ratio of 10:1:1 and place in a 96-well microplate. Then, 198 µL of FRAP reagent and 2 µL of the peptide sample was mixed and incubated at 37 °C in the dark for 30 min. The absorbance was measured at 593 nm using a microplate reader (Bioteck, Epoch/2 microplate reader, Winooski, VT, USA). The difference between the absorbance of the test sample and the blank reading was calculated and expressed as µM of FeSO4/g of the peptide. FeSO4 was used as standard.

[3] = Oxygen radical absorption capacity (ORAC); conditions: peptides 10 µM, AAPH 12 mM, fluorescein; mean ± SEM
Protocol: The ability of peptides to neutralize the peroxyl radicals was evaluated in ORAC according to the described method. Peptides (20 µL) and fluorescein (120 µL; 70 nM) were placed in a microplate well and pre-incubated for 15 min at 37 °C. Then, 60 µL of 2,2ʹ-azobis (2-amidino-propane) dihydrochloride (AAPH) as a radical generator was added in a final concentration of 12 mM. The fluorescence was read at wavelengths of 458 nm (excitation) and 520 nm (emission) and recorded every minute for 240 min. A blank using phosphate buffer instead of […] and a calibration curve using Trolox as standard (1–8 µM, final concentration) were also carried on in each assay. Final results were presented in µmol of Trolox equivalents/ µM peptide (µmol TE/ µM peptide).

SH-SY5Y cells [4] = test: Mitochondrial membrane potential (JC-1) in 6-OHDA-treated SH-SY5Y cells; type: cell-based, human; conditions: 6-OHDA 100 µM, 6 h
Protocol: Mitochondrial function was assessed by monitoring changes in MMP (∆Ψm) using the fluorescent probe, JC-1 fluorescence dye (5,5′,6,6′-tetrachloro-1,1′,3,3′-tetraethyl-imidacarbocyanine iodide, Molecular Probes, T3168, Eugene, Oregon, USA). The assay was performed according to the method described by Silva et al.. Briefly, SH-SY5Y cells were exposed 6 h to 6-OHDA (100 μM) in the presence or absence of peptides. After incubation, cells were washed with ice-cold PBS, and then JC-1 reagent (3 µM, 200 µL) was added for 15 min at 37 °C. Afterwards, JC-1 was removed, and cells were washed with PBS. The formation of JC-1 aggregates (490 nm of excitation and 590 nm of emission) and the monomeric form of JC-1 (490 nm of excitation and 530 nm of emission) was accompanied simultaneously in the plate reader for 30 min. Results were expressed as the ratio of the monomers/aggregates of JC-1 in the percentage of control.

| Molecule | decrease of ROS production stimulated by 6-OHDA (SH-SY5Y cells [1]; 6 h) | AKT phosphorylation (AKT) | stimulation time for maximum effect on AKT phosphorylation (AKT) | effect of peptide on AKT phosphorylation after LY 294002 pre-treatment (AKT) | phosphorylated mTOR compared with the 6-OHDA-injured group (mTOR) | FRAP, ability to reduce iron ions [2] | ORAC, ability to neutralize the peroxyl radicals [3] | other results |
| --- | --- | --- | --- | --- | --- | --- | --- | --- |
| CC(C)C[C@H](NC(=O)C1CCN(C(=O)[C@@H](N)Cc2ccc(O)cc2)CC1)C(=O)N[C@@H](CC(=O)O)C(=O)N[C@@H](CC(C)C)C(=O)N[C@@H](Cc1ccccc1)C(=O)O [analog 3, Tyr-Inp-Leu-Asp-Leu-Phe-OH] (H-Y[Inp]LDLF-OH) | about 60% | transiently stimulated | 7.5 min |  |  |  |  |  |
| CC(C)C[C@H](NC(=O)C1CCN(C(=O)[C@@H](N)Cc2ccc(O)cc2)CC1)C(=O)N[C@@H](CC(=O)O)C(=O)N[C@@H](CC(C)C)C(=O)N[C@@H](Cc1ccccc1)C(N)=O [analog 7, Tyr-Inp-Leu-Asp-Leu-Phe-NH2] (H-Y[Inp]LDLF-NH2) | about 60% | transiently stimulated | 2.5 min | significantly blocked | significant increase |  |  |  |
| Cc1cc(O)cc(C)c1C[C@H](N)C(=O)N1CCC(C(=O)N[C@@H](CC(C)C)C(=O)N[C@@H](CC(=O)O)C(=O)N[C@@H](CC(C)C)C(=O)N[C@@H](Cc2ccccc2)C(=O)O)CC1 [analog 5, Dmt-Inp-Leu-Asp-Leu-Phe-OH] (H-[Dmt][Inp]LDLF-OH) | about 60% | transiently stimulated | 7.5 min | significantly blocked | significant increase |  |  |  |
| YPLDLF [R-6, rubiscolin-6] |  |  |  |  |  | 1.09 ± 0.20 µM Eq. FeSO4/g of peptide | 2789 ± 131.6 µmol Eq. Trolox/g of peptide | decrease of intracellular ROS levels stimulated by 6-OHDA (SH-SY5Y cells [1]; peptide 0.1 µM, 6 h): about 70%; effect on MMP changes caused by the neurotoxin (SH-SY5Y cells [4]; peptide 0.1-10 µM): markedly decreased |
| Cc1cc(O)cc(C)c1C[C@H](N)C(=O)N1CCC[C@H]1C(=O)N[C@@H](CC(C)C)C(=O)N[C@@H](CC(=O)O)C(=O)N[C@@H](CC(C)C)C(=O)N[C@@H](Cc1ccccc1)C(=O)O [analog 1, Dmt-Pro-Leu-Asp-Leu-Phe-OH] (H-[Dmt]PLDLF-OH) |  |  |  |  |  |  |  | effect on ROS production (SH-SY5Y cells [1]; peptide 10 µM): couldn’t decrease; effect on MMP depolarization (SH-SY5Y cells [4]; peptide 10 µM): couldn’t decrease |
| YPLDLF-NH2 [analog 6, Tyr-Pro-Leu-Asp-Leu-Phe-NH2] |  |  |  |  |  | 0.87 ± 0.22 µM Eq. FeSO4/g of peptide | 3143 ± 164.4 µmol Eq. Trolox/g of peptide |  |
